From article PMC12655252, “Synthesis of 1H-Pyrrolo[3,2-g]isoquinoline Derivatives as Ligands Targeting Haspin Kinase” (Molecules, 2025)

System: endogenous Haspin kinase (phosphorylation of Histone H3 on Thr3) in U2OS cells
Assay: H3T3ph immunofluorescence assay in U2OS cells (cellular endogenous Haspin activity)
Type: cell-based
Conditions: 1 μM, 16 h, positive control
Method: In order to assess the ability of our most interesting compounds to inhibit cellular endogenous Haspin kinase, we evaluated their effects on the phosphorylation of Histone H3 on Thr3, a bona fide Haspin substrate (Figure 4). We treated osteosarcoma U2OS cells with 2.5 μM of selected compounds for 16 h before quantifying H3T3 phosphorylation by immunofluorescence on early mitotic cells (Figure 4A,B). […] This discrepency could be explained by the inability of this compound to cross the plasma membrane or by reduced stability in a cellular environment.
Ethical approval for this study was obtained (9 July 2025) from DGRI-LabOGM (APPROVAL NUMBER: L1-2373). U2OS cells (purchased from ATCC, Manassas, VA, USA, reference HTB-96) were grown in DMEM medium (Dulbecco’s Modified Eagle Medium, High glucose; GlutaMAX, Life Technologies, Carlsbad, CA, USA) supplemented with 10% fetal bovine serum (Gibco, Grand Island, NY, USA) in a 5% CO2 humidified atmosphere. Cells grown on coverslips were treated for 16 h with each compound or 0.025% DMSO, then fixed with 4% paraformaldehyde in PBS, permeabilized by 0.15% Triton-X100 for 2 min, and blocked for 12 min in 4% BSA in PBS. Immunofluorescence assay was performed using standard protocols with a rabbit anti-phospho-Thr3 Histone H3 and a mouse anti-a-Tubulin (B-5-1-2) obtained from Merck Millipore, Burlington, MA, USA (1/2000 dilution). Coverslips were mounted with Vectashield containing DAPI (Vector Laboratories, Newark, CA, USA). Images were acquired with a Coolsnap HQ2 CCD camera (Photometrics, Tucson, AZ, USA) on a Zeiss Axio microscope (Carl Zeiss, Oberkochen, Germany) using a 63x NA 1.46 objective. Image acquisition and processing were performed using Zen Blue (Carl Zeiss). The H3T3ph signal on chromosomes was normalized against the DAPI signal and analyzed using ImageJ software (NIH, Version 1.54p). Graphs were produced and statistical analysis was performed using GraphPad Prism 10. p-values were determined by t-test; n.s., not significant; **** p ≤ 0.0001.
Figure 4 Evaluation of selected compounds on cellular endogenous Haspin activity. (A) U2OS cells were treated with 2.5 μM of each compound or 1 μM of CHR6494 (CHR) or DMSO for 16 h. Immunofluorescence assay was performed with anti-pH3T3 antibody (green) and anti-a-Tubulin (red); DNA was labelled with DAPI (blue). Representative images of early mitotic cells for each condition are presented. Scale bar: 5 μm. (B) Scatter plot representing H3T3ph/DAPI signal ratio indicative of Haspin activity; n > 17 mitotic cells per condition. n.s., not significant; **** p ≤ 0.0001.

With `CCCNc1ccc2ncc(-c3ccc4[nH]ncc4c3)n2n1` [CHR-6494, reference compound] the “Effect on endogenous Haspin activity (H3T3 phosphorylation)” value was “abolished Haspin activity”.
